From US11702400B2, “Salt types, crystal forms, and preparation methods for benzopyrazole compounds as RHO kinase inhibitors” (MEDSHINE DISCOVERY INC., priority 2019, dated 2023) come the findings set out here.

The nature of the data set: Pharmacokinetic study of the crystal form A of the compound of formula (II-1) in Beagle dogs. The data set is classed as in vivo. On the procedure: Experimental purpose: To study the pharmacokinetics of the compounds in Beagle dogs
Experimental materials: Beagle dogs (12, half male and half female)
Experimental procedure: The pharmacokinetic characteristics of the compounds were tested in Beagle dogs after intravenous (IV) and oral (PO) administration using standard protocols. The candidate compounds were prepared into 0.5 mg/mL and 1.5 mg/mL clarified solutions and administrated to Beagle dogs for single intravenous injection and oral administration. The solvent for both intravenous and oral administration was 5% DMSO/95% (10% hydroxypropyl β-cyclodextrin) aqueous solution. 12 beagle dogs were used in this project, 6 beagle dogs (half male and half female) were administered intravenously at a dose of 1 mg/kg and plasma samples were collected at […], 0.5, 1, 2, 4, 8, 12, 24, 36, 48 and 72 h after administration, and the other 6 beagle dogs (half male and half female) were administered orally by gavage at a dose of 7.5 mg/kg and plasma samples were collected at 0.25, 0.5, 1, 2, 4, 8, 12, 24, 36, 48 and 72 h after administration. 15 μL of plasma sample was added to a 96-well plate, and 300 μL of internal standard working solution (MeOH (containing 1.00 ng/mL Verapamil and 0.1% formic acid (FA)): ACN (v:v, 50:50) solution) was added to precipitate the proteins, the 96-well plate was shaken for 15 min, followed by centrifugation at 4° C., 3220 g for 15 min. 150 μL of supernatant was placed in a new 96-well plate with 150 μL of aqueous solution containing 0.1% formic acid (FA) and shaken for 10 min, and then centrifuged at 4° C., 3220 g for 5 min. The sample was directly injected, and the plasma drug concentration was quantitatively analyzed by LC-MS/MS analysis method, and pharmacokinetic parameters were calculated, such as peak concentration (Cmax), clearance rate (CL), half-life (T1/2), […] (Vdss), area under the drug-time curve (AUC0-last), bioavailability (F), etc.

For the compound `COc1cccc(C(CN)NC(=O)c2cc(-c3ccc4[nH]nc(C)c4c3)ccn2)c1.Cl.Cl` (stereo not shown), for the setting “Beagle dogs, IV 1 mg/kg”, the “Clearance rate CL” value is on record as 22.3 mL/min/kg, the “Half-life T1/2 (IV)” value turned out to be 12.4 h and the “Tissue distribution Vdss” value was 18.6 L/kg. The “Bioavailability F” value (Beagle dogs, IV 1 mg/kg, PO 7.5 mg/kg) was 90.4%. The “Area under drug-time curve AUC0-last PO” value (Beagle dogs, PO 7.5 mg/kg) was determined as 12.6 µM·h. The Cmax (Beagle dogs, half male and half female, PO 7.5 mg/kg, read-out: Peak concentration Cmax) came out at 834 nM. For the same compound, the “pharmacokinetic properties (conclusion in words)” value (beagle dogs) is given as “good pharmacokinetic properties”.
